{"source": "ChEMBL document CHEMBL1148830", "about": "“Discovery and investigation of antiproliferative and apoptosis-inducing properties of new heterocyclic podophyllotoxin analogues accessible by a one-step multicomponent synthesis” (2007)", "key": {"HeLa [1]": {"tested_on": "HeLa", "assay": "Antiproliferative activity against HeLa cells assessed as cell viability at 5 uM after 48 hrs by MTT assay relative to control", "assay_type": "functional", "conditions": "Homo sapiens, read-out: Activity"}, "[2]": {"assay": "Antiproliferative activity against human MCF7/AZ cells assessed as cell viability at 5 uM after 48 hrs by MTT assay relative to control", "assay_type": "functional", "conditions": "read-out: Activity"}, "Jurkat [3]": {"tested_on": "Jurkat", "assay": "Antiproliferative activity against human Jurkat cells assessed as cell viability at 5 uM after 48 hrs by MTT assay", "assay_type": "functional", "conditions": "read-out: Activity"}, "Jurkat [4]": {"tested_on": "Jurkat", "assay": "Induction of apoptosis in Jurkat cells assessed as cell viability at 5 uM after 48 hrs by flow cytometry Annexin-V/propidium iodide assay", "assay_type": "functional", "conditions": "Homo sapiens, read-out: Activity"}, "HeLa [5]": {"tested_on": "HeLa", "assay": "Growth inhibition of HeLa cells after 48 hrs by MTT assay", "assay_type": "functional", "conditions": "Homo sapiens"}, "HeLa [6]": {"tested_on": "HeLa", "assay": "Antiproliferative activity against HeLa cells assessed as cell viability at 50 uM after 48 hrs by MTT assay", "assay_type": "functional", "conditions": "Homo sapiens, read-out: Activity"}, "[7]": {"assay": "Antiproliferative activity against human MCF7/AZ cells assessed as cell viability at 50 uM after 48 hrs by MTT assay", "assay_type": "functional", "conditions": "read-out: Activity"}, "Jurkat [8]": {"tested_on": "Jurkat", "assay": "Antiproliferative activity against human Jurkat cells assessed as cell viability at 50 uM after 48 hrs by MTT assay", "assay_type": "functional", "conditions": "read-out: Activity"}, "Jurkat [9]": {"tested_on": "Jurkat", "assay": "Induction of apoptosis in Jurkat cells assessed as cell viability at 50 uM after 48 hrs by flow cytometry Annexin-V/propidium iodide assay", "assay_type": "functional", "conditions": "Homo sapiens, read-out: Activity"}, "Jurkat [10]": {"tested_on": "Jurkat", "assay": "Effect on apoptosis in Jurkat cells assessed as DNA laddering after 24 hrs at 1 uM", "assay_type": "functional, cell-based", "conditions": "Homo sapiens"}, "Lymphocyte": {"tested_on": "Lymphocyte", "assay": "Induction of apoptosis in human whole blood lymphocytes after 24 hrs by flow cytometric Annexin-V/propidium iodide assay", "assay_type": "functional, cell-based"}, "Jurkat [11]": {"tested_on": "Jurkat", "assay": "Induction of apoptosis in Jurkat cells after 24 hrs by flow cytometric Annexin-V/propidium iodide assay", "assay_type": "functional, cell-based", "conditions": "Homo sapiens"}}, "note": "Calls of active or inactive are those of the source. The calls are words filed in the database; no cut-off is given here."}
{"smiles": "COc1cc([C@@H]2c3cc4c(cc3[C@@H](O[C@@H]3O[C@@H]5CO[C@@H](C)O[C@H]5[C@H](O)[C@H]3O)[C@H]3COC(=O)[C@H]23)OCO4)cc(OC)c1O", "note": "[ETOPOSIDE]", "values": [{"measurement": "viability at 5 µM", "setting": "HeLa [1]", "result": 91, "unit": "%"}, {"measurement": "viability at 5 µM", "setting": "[2]", "result": 76, "unit": "%"}, {"measurement": "viability at 5 µM", "setting": "Jurkat [3]", "result": 75, "unit": "%"}, {"measurement": "viability at 5 µM", "setting": "Jurkat [4]", "result": 4, "unit": "%"}, {"measurement": "GI50", "setting": "HeLa [5]", "result": 8, "unit": "µM"}, {"measurement": "viability at 50 µM", "setting": "HeLa [6]", "result": 15, "unit": "%"}, {"measurement": "viability at 50 µM", "setting": "[7]", "result": 57, "unit": "%"}, {"measurement": "viability at 50 µM", "setting": "Jurkat [8]", "result": 50, "unit": "%"}, {"measurement": "viability at 50 µM", "setting": "Jurkat [9]", "result": 61, "unit": "%"}, {"measurement": "Activity", "setting": "Jurkat [10]", "result": "inactive"}, {"measurement": "Activity", "setting": "Lymphocyte", "result": "inactive"}, {"measurement": "Activity", "setting": "Jurkat [11]", "result": "Active"}]}
